In brackets after ≈: the same amount, converted by molar mass.
Tested on: Streptococcus mutans
Assay: Minimal Inhibitory Concentration ofcompound against Streptococcus mutans
Type: functional

Row | Structure (SMILES) | MIC [mM]
1 | c1ccc([B-]23OCC[NH+]2CCO3)cc1 (stereo not drawn) | 6.75 (≈ 1290 µg/mL)
2 | CCCC[B-]12OCC[NH+]1CCO2 (stereo not drawn) | 6.75 (≈ 1150 µg/mL)
3 | CC1C(c2ccccc2)OB(c2ccccc2)N1C (stereo not drawn) | 1.55 (≈ 389 µg/mL)

More lines, now with the values ahead:

Row | MIC [mM] | Structure (SMILES)
4 | 3.38 (≈ 524 µg/mL) | CCCCB1NC(C)(C)CO1
5 | 6 (≈ 1050 µg/mL) | CC1(C)COB(c2ccccc2)N1
6 | 2.83 (≈ 614 µg/mL) | CCCCB1NC(C)C(c2ccccc2)O1 (stereo not drawn)
7 | 0.53 (≈ 123 µg/mL) | CCCCB1OC(c2ccccc2)C(C)N1C (stereo not drawn)
8 | 1.33 (≈ 315 µg/mL) | CC1NB(c2ccccc2)OC1c1ccccc1 (stereo not drawn)
